Data on 9 compounds can be found in patent US20040229936A1, “Treatment of hepatitis C virus infection with sesquiterpene lactones” (priority 2003, published 2004).

The test system of assay [1] is HCV RNA replication in Huh-7 cells containing HCV sub-genomic replicons (Ava.5). Put plainly: Inhibition of HCV RNA replication (replicon cells, RT and Q-PCR, normalised to GADPH). Conditions: for EC50: Hepatitis C virus, 24 h, read-out: EC50 value (effective concentration at which HCV RNA replication was inhibited by 50%).
Description: Huh-7 cells containing HCV sub-genomic replicons (Ava.5) were maintained in DMEM supplemented with 10% heat-inactivated FCS in a humidified atmosphere containing 5% of CO2. The medium also contained 1 mg/mL G418 (an aminoglycosidic antibiotic agent obtained from Promega, WI) as a selective pressure for the maintenance of HCV replicon's RNA replication. […] Cells were treated with sesquiterpene lactones and control compounds at various concentrations. Then, cells were harvested after 24 hr of the treatment. Subsequently, total cellular RNA's were extracted and quantified as follows.
Total RNA of cells was extracted using RNeasy Mini Kit (QIAGEN). The concentration of total RNA was measured by absorption at 260 nm. […] RNA was added with RNase-free ddH2O to a final volume of 10.5 μL and denatured for 10 min at 65° C. Reverse transcription (RT) reactions were carried out at 42° C. for 1 hr using Expand-RT (Roche Biochemicals, Mannheim, Germany) in a total volume of 20 μL containing a previously denatured primer-RNA mixture, 1 mM each of deoxynucleotide triphosphates (dNTPs), 50 units reverse transcriptase, and 20 units RNase inhibitor (Promega, Madison, Wis.).
Quantitative PCR (Q-PCR) was carried out by LightCycler-DNA Master using SYBR Green 1 for real-time detection of double-stranded DNA (dsDNA) (Roche Diagnostics GmbH, Mannheim, Germany). The intensity of fluorescence was recorded versus PCR cycle numbers and the relative amounts of HCV RNA were calculated corresponding to the standard curve. The standard curve was derived from five serial dilutions of reference DNA, the corresponding cDNA of HCV RNA, under criteria recommended by the supplier.
The relative copy numbers HCV RNA and a house-keeping gene, glyceraldehyde-3-phosphate dehydrogenase (GADPH), were determined by Q-PCR utilizing the following primer sets:
PCR was performed as followed: (i) denaturing conditions: 95° C., 60 sec; (ii) amplification conditions: ramp to 95° C., 0 sec; 64° C., 10 sec; 72° C., 10 sec. The specificity of an amplification reaction was determined by performing a melting curve analysis with a temperature range from 65° C. to 95° C.
HCV RNA copy numbers were divided by their corresponding GADPH copy numbers in the same sample for normalization. Effect of sesquiterpene lactones on HCV RNA replication was represented by “relative copy number,” which was obtained by comparing HCV RNA copy numbers with sesquiterpene lactones treatment to HCV RNA copy numbers without sesquiterpene lactones treatment. The latter was designated as 100%. All measurements were performed in triplicates to reach statistical significance.
In assay [2] the test system is Huh-7 cells containing HCV sub-genomic replicons (Ava.5). Put plainly: Inhibition of cell growth (MTS cell viability / cytotoxicity assay). Conditions: Hepatitis C virus, read-out: IC50 value (concentration at which cell growth was inhibited by 50%).
Description: Huh-7 cells containing HCV sub-genomic replicons (Ava.5) were provided by Apath, LLC. […] Cells were maintained in Dulbecco's modified Eagle's medium (DMEM) supplemented with 10% fetal calf serum (FCS) in a humidified atmosphere containing 5% of CO2.
MTS and PMS, both in powder form, were purchased from Sigma or Promega. MTS was dissolved in PBS (2 mg/mL) and PMS (0.38 mg/mL) was dissolved in ddH2O as stock solutions. […] Prior to the assay, a 2 mL MTS/PMS solution containing MTS and PMS (20:1) was added to the cells with 8 mL of phenol red-free DMEM. The cell culture medium was then aspirated off, washed with PBS, and 100 μL of the MTS/PMS mixture was added into each well. After incubation at room temperature for 2 hr, optical densities of each sample were measured at OD490 with a 96-well microtiter plate reader. Data were obtained with six repeats for each treatment.

For the compound `CC1=CCCC2(C)OC2C2OC(=O)C(CN3CCCCCC3)C2CC1` (centres unmarked) [Compound 48, 12-Azepan-1-ylmethyl-4,8-dimethyl-3,14-dioxa-tricyclo[9.3.0.02,4]tetradec-7-en-13-one], the EC50 in assay [1] is not above 3000 nM. Turning to IFNα, the “inhibition of HCV RNA replication” value in assay [1] (50 IU/1 mL of IFNα alone) came out at 25%; in assay [1] (100 IU/mL of IFNα alone), 40%. Regarding `CC1=CCCC2(C)OC2C2OC(=O)C(CN3CCCC3)C2CC1` (centres unmarked) [Compound 46, 4,8-Dimethyl-12-pyrrolidin-1-ylmethyl-3,14-dioxa-tricyclo[9.3.0.02,4]tetradec-7-en-13-one], in assay [1], the EC50 is not above 3000 nM. Take `CCN(CC)CC1C(=O)OC2C1CCC(C)=CCCC1(C)OC21` (centres unmarked) [Compound 45, 12-Diethylaminomethyl-4,8-dimethyl-3,14-dioxa-tricyclo[9.3.0.02,4]tetradec-7-en-13-one]: the EC50 in assay [1] is not above 3000 nM.

With `CC1=CCCC2(C)OC2C2OC(=O)C(CN(C)C)C2CC1` (centres unmarked) [Compound 44, 12-Dimethylaminomethyl-4,8-dimethyl-3,14-dioxa-tricyclo[9.3.0.02,4]tetradec-7-en-13-one], in assay [1], the EC50 was not above 3000 nM. On the same count and under the same terms, the same measure for `CC1=CCCC2(C)OC2C2OC(=O)C(CN3CCOCC3)C2CC1` (centres unmarked) [Compound 49, 4,8-Dimethyl-12-morpholin-4-ylmethyl-3,14-dioxa-tricyclo[9.3.0.02,4]tetradec-7-en-13-one]: not above 6000 nM. Consider `CC1=CCCC2(C)OC2C2OC(=O)C(CN3CCCC3C(=O)O)C2CC1` (centres unmarked) [Compound 50, 1-(4,8-Dimethyl-13-oxo-3,14-dioxa-tricyclo[9.3.0.02,4]tetradec-7-en-12-ylmethyl)-pyrrolidine-2-carboxylic acid], for which, in assay [2], the IC50 was 8100 nM. The EC50 in assay [1] is not above 3000 nM. For `CC1=CCCC2(C)OC2C2OC(=O)C(CSCC(N)C(=O)O)C2CC1` (centres unmarked) [Compound 53, 2-Amino-3-(4,8-dimethyl-13-oxo-3,14-dioxa-tricyclo[9.3.0.02,4]tetradec-7-en-12-ylmethylsulfanyl)-propionic acid], in assay [1], the EC50 is not above 6000 nM. Regarding `CC1=CCCC2(C)OC2C2OC(=O)C(CN3CCCCC3)C2CC1` (centres unmarked) [Compound 47, 4,8-Dimethyl-12-piperidin-1-ylmethyl-3,14-dioxa-tricyclo[9.3.0.02,4]tetradec-7-en-13-one], in assay [1], the EC50 is not above 3000 nM.
